# Assay results taken from PubChem BioAssay (NCI).
#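 Dose response: 5 concentrations. Exposure: 48 h. Format: 96-well plates. Endpoint: linear interpolation; highest concentration if not reached. Here, GI50 denotes the concentration required for 50% inhibition of growth. The concentration for full growth arrest is given as TGI.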
# What was measured:
# Assay in all cases: DTP human tumour cell line panel, 48 h
# 786-0 renal = test system: 786-0 renal
# A498 renal = test system: A498 renal
# ACHN renal = test system: ACHN renal
# BT-549 breast = test system: BT-549 breast
# CAKI-1 renal = test system: CAKI-1 renal
# DU-145 prostate = test system: DU-145 prostate
# HL-60(TB) leukemia = test system: HL-60(TB) leukemia
# HOP-62 NSCLC = test system: HOP-62 NSCLC
# HOP-92 NSCLC = test system: HOP-92 NSCLC
# HS 578T breast = test system: HS 578T breast
# K-562 leukemia = test system: K-562 leukemia
# M14 melanoma = test system: M14 melanoma
# MDA-MB-231 breast = test system: MDA-MB-231 breast
# MDA-MB-435 = test system: MDA-MB-435
# NCI-H226 lung = test system: NCI-H226 lung
# NCI/ADR-RES ovarian = test system: NCI/ADR-RES ovarian
# OVCAR-3 ovarian = test system: OVCAR-3 ovarian
# OVCAR-5 ovarian = test system: OVCAR-5 ovarian
# OVCAR-8 ovarian = test system: OVCAR-8 ovarian
# PC-3 prostate = test system: PC-3 prostate
# RXF 393 renal = test system: RXF 393 renal
# SF-268 CNS = test system: SF-268 CNS
# SF-295 CNS = test system: SF-295 CNS
# SF-539 CNS = test system: SF-539 CNS
# SK-MEL-2 melanoma = test system: SK-MEL-2 melanoma
# SK-MEL-5 melanoma = test system: SK-MEL-5 melanoma
# SK-OV-3 ovarian = test system: SK-OV-3 ovarian
# SN12C renal = test system: SN12C renal
# SNB-75 CNS = test system: SNB-75 CNS
# SR leukemia = test system: SR leukemia
# UACC-257 melanoma = test system: UACC-257 melanoma
# UACC-62 melanoma = test system: UACC-62 melanoma
# UO-31 renal = test system: UO-31 renal
smiles,measurement,setting,value
C1CCC([PH+](C2CCCCC2)C2CCCCC2[PH+](C2CCCCC2)C2CCCCC2)CC1.O=C(C1[CH-]CCCC1)C1CCCC[N-]1.[Au] (stereo unspecified),GI50,786-0 renal,413 nM
same,TGI,786-0 renal,1850 nM
same,GI50,A498 renal,75.7 nM
same,TGI,A498 renal,584 nM
same,GI50,ACHN renal,920 nM
same,TGI,ACHN renal,2120 nM
same,GI50,BT-549 breast,261 nM
same,TGI,BT-549 breast,1500 nM
same,GI50,CAKI-1 renal,1070 nM
same,TGI,CAKI-1 renal,2720 nM
same,GI50,DU-145 prostate,298 nM
same,TGI,DU-145 prostate,1610 nM
same,GI50,HL-60(TB) leukemia,249 nM
same,TGI,HL-60(TB) leukemia,731 nM
same,GI50,HOP-62 NSCLC,323 nM
same,TGI,HOP-62 NSCLC,2960 nM
same,GI50,HOP-92 NSCLC,220 nM
same,TGI,HOP-92 NSCLC,890 nM
same,GI50,HS 578T breast,225 nM
same,TGI,HS 578T breast,1560 nM
same,GI50,K-562 leukemia,194 nM
same,TGI,K-562 leukemia,> 100 µM
same,GI50,M14 melanoma,260 nM
same,TGI,M14 melanoma,1400 nM
same,GI50,MDA-MB-231 breast,223 nM
same,TGI,MDA-MB-231 breast,713 nM
same,GI50,MDA-MB-435,229 nM
same,TGI,MDA-MB-435,704 nM
same,GI50,NCI-H226 lung,455 nM
same,TGI,NCI-H226 lung,2430 nM
same,GI50,NCI/ADR-RES ovarian,1800 nM
same,TGI,NCI/ADR-RES ovarian,> 100 µM
same,GI50,OVCAR-3 ovarian,272 nM
same,TGI,OVCAR-3 ovarian,1190 nM
same,GI50,OVCAR-5 ovarian,343 nM
same,TGI,OVCAR-5 ovarian,1530 nM
same,GI50,OVCAR-8 ovarian,245 nM
same,TGI,OVCAR-8 ovarian,> 100 µM
same,GI50,PC-3 prostate,218 nM
same,TGI,PC-3 prostate,3.8 µM
same,GI50,RXF 393 renal,317 nM
same,TGI,RXF 393 renal,1380 nM
same,GI50,SF-268 CNS,343 nM
same,TGI,SF-268 CNS,1910 nM
same,GI50,SF-295 CNS,262 nM
same,TGI,SF-295 CNS,1090 nM
same,GI50,SF-539 CNS,310 nM
same,TGI,SF-539 CNS,1280 nM
same,GI50,SK-MEL-2 melanoma,379 nM
same,TGI,SK-MEL-2 melanoma,2020 nM
same,GI50,SK-MEL-5 melanoma,252 nM
same,TGI,SK-MEL-5 melanoma,661 nM
same,GI50,SK-OV-3 ovarian,330 nM
same,TGI,SK-OV-3 ovarian,1400 nM
same,GI50,SN12C renal,262 nM
same,TGI,SN12C renal,2810 nM
same,GI50,SNB-75 CNS,179 nM
same,TGI,SNB-75 CNS,1050 nM
same,GI50,SR leukemia,329 nM
same,TGI,SR leukemia,> 100 µM
same,GI50,UACC-257 melanoma,337 nM
same,TGI,UACC-257 melanoma,3.36 µM
same,GI50,UACC-62 melanoma,226 nM
same,TGI,UACC-62 melanoma,835 nM
same,GI50,UO-31 renal,1450 nM
same,TGI,UO-31 renal,2760 nM
